Experimental data taken from patent publication US20260166182A1, “CYANINE-BASED FLUOROPHORES” (The General Hospital Corporation, priority 2022, published 2026).
“Also recorded” adds a separate entry of the source.

Tests used:
[1] = tested on: triple-negative breast adenocarcinoma (E0771 cell); assay: NIR-II fluorescence imaging of subcutaneous breast tumor-bearing C57BL/6 mice; type: in vivo, mouse; settings: larger-sized breast tumors
Excerpt: General NIR-II fluorescence imaging: A 640×512-pixel InGaAs camera (Ninox640, Raptor Photonics) and macro zoom lens (0-10×; Navitar Zoom 7000 with SWIR coating) along with 900, 1070, 1100, and 1200 nm long-pass (LP) filters from either Thorlab or Edmund optics were used to collect the NIR-II signal. InGaAs camera played a role as an open-air imaging system along with the support of the FLARE system. An 808 nm fiber-coupled diode laser ([…] at the sample) was used as an excitation source. Data acquisition was done using in-house developed software. The mice fur on the region of interest was shaved prior to imaging using a clipper and removed completely using a depilatory cream. 100 μL of SH1 in 5 w/v % BSA saline ([…]) was injected through the tail vein. Mice were imaged with intact skin using InGaAs camera. At least 3 mice were analyzed for each sample. […]
Statistical analysis: The fluorescence and background intensities of a region of interest over each tissue were quantified using customized imaging software and ImageJ v1.48 (National Institutes of Health, Bethesda, MD). The signal-to-background ratio (SBR) was calculated as SBR=fluorescence/background, where background was the fluorescence intensity of muscle. […] The differences among groups were determined using one-way ANOVA analysis to assess the statistical differences among more than two groups. […]

[2] = In vivo biodistribution and pharmacokinetics in CD-1 mice; design: species or system mouse
Excerpt: In vivo biodistribution and pharmacokinetics of SH dyes: Animals were housed in an AAALAC-certified facility and were studied under the supervision of MGH IACUC in accordance with the approved institutional protocol. Six-week-old CD-1 mice (male; 25-30 g) were purchased from Charles River Laboratories (Wilmington, MA). Mice were maintained under anesthesia with isoflurane and oxygen during the preparation prior to injection. The end of the tail was cut for blood collection. Before injection, blood was sampled in capillary tubes (Fisher Scientific, Pittsburgh, PA) as a reference. […] Mice were imaged using the in-house built NIR-II imaging system. After 24 h post-injection, mice were sacrificed to image organs. At least 3 mice were analyzed for each sample. Results were presented as an exponential decay curve using Prism software version 9.0.2 (GraphPad, San Diego, CA).

[3] = In vivo biodistribution study of NIR fluorophores in CD-1 mice; design: species or system mouse; settings: 25 nmol intravenous, 4 h post-injection; listed as 18
Description: In Vivo Biodistribution Study of NIR Fluorophores: Under the supervision of the MGH IACUC, animals were housed in an AAALAC-certified facility and studied according to institutional protocol #2016N000136. In preparation for injection, CD-1 mice (25-30 g, 6 weeks, Charles River Laboratories, Wilmington, MA) were anesthetized with isoflurane and oxygen. A 10 mM stock solution of NIR fluorophores was prepared in DMSO, and 25 nmol of each molecule was diluted in BSA-containing saline (5 wt/v %) for intraoperative imaging. After 4 h post-injection, mice were imaged. For each experiment, camera exposure time and image normalization were held constant.
Quantitative Analysis: The fluorescence and background intensity of a region of interest (ROI) over each tissue was quantified using ImageJ software (NIH, Bethesda, MD) version 1.45q. The signal-to-background ratio (SBR) was calculated as SBR=fluorescence/background, where background is the signal intensity of neighboring tissues such as muscle. All NIR fluorescence images for a particular fluorophore were normalized identically for all conditions of an experiment.

[4] = tested on: LLC tumor; assay: Tumor histopathology with NIR fluorescence microscopy of resected LLC tumors; type: in vivo, mouse; settings: histological NIR images
Description: Tumor histopathology evaluation: […] After rinsing with PBS, the fixed sections were counterstained with nuclear fast red, dehydrated by ethanol, transferred into xylene, and finally mounted according to the standard protocol. To determine the tissue distribution of the NIR fluorophore, the dissected tissues were embedded in Tissue-Tek optimum cutting temperature compound (Sakura Finetek, Torrance, CA) without a pre-fixation step. The tissue block was frozen at −80° C. Frozen sections were cut at a thickness of 10 or 50 μm by a cryostat (Leica, Germany). Then, the tissue sections were stained with hematoxylin and eosin (H&E). The BioTek Cytation 5 (Winooski, VT) was used for pathological fluorescence imaging and observation.

CCCCN1/C(=C/C=C2\CCCC(/C=C/C3=[N+](CCCC)c4ccc(Cl)cc4C3(C)C)=C2Cl)C(C)(C)c2cc(Cl)ccc21 [SH1, 1-butyl-2-((E)-2-((E)-3-(2-((E)-1-butyl-5-chloro-3,3-dimethylindolin-2-ylidene)ethylidene)-2-chlorocyclohex-1-en-1-yl)vinyl)-5-chloro-3,3-dimethyl-3H-indol-1-ium]
TBR [1]: 17.6
pharmacokinetic model ([2]; 1 μmol/kg intravenous): one-compartment model
time to complete distribution ([2]; 1 μmol/kg intravenous): ≤ 24 h
organ distribution ([2]; 24 h post-injection): major distribution in the liver and spleen
half-life ([2]; male, CD-1, mouse, whole blood, 1 umol/kg, 1 μmol/kg intravenous, read-out: elimination blood half-life t½ (converted)): 5.39 ± 1.53 h
tissue/organ signals [3]: high signals in the primary and secondary lymphoid tissues; also recorded: higher signals in the bone marrow, spleen, and lymph nodes
fluorescence signal location in resected tumor [4]: strong fluorescence signals in the targeted tumor
